Drawing on PubChem BioAssay (NCI), this text covers TGI and GI50 for nine molecules.

Some test systems named below: COLO 205 colon; SF-295 CNS; CAKI-1 renal; SR leukemia; NCI-H226 lung; HCT-116 colon; SW-620 colon; HOP-92 NSCLC; UO-31 renal; TK-10 renal.
What all share (assay): DTP human tumour cell line panel, 48 h

Molecules are shown by their SMILES. Where “and” joins values, the source holds several entries; their conditions need not be identical. Equal entries are not always repeated.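 In this assay, cells in 96-well plates receive the compound at five concentrations for 48 hours. Endpoints are linearly interpolated between the surrounding concentrations. At the GI50, growth is halved. TGI marks complete inhibition of growth.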

In the case of `O=C1[C@@H]2C(c3ccccc3F)=NO[C@@H]2C(=O)N1c1ccc(Cc2ccc(N3C(=O)[C@H]4C(c5ccccc5F)=NO[C@H]4C3=O)cc2)cc1`, the concentration for total growth inhibition (TGI) in the assay on COLO 205 colon, in the assay on SF-295 CNS, in the assay on CAKI-1 renal, in the assay with SR leukemia, in the assay with NCI-H226 lung and in the assay on HCT-116 colon was > 100 µM throughout. Further, the TGI (usually the concentration at which net growth stops) in the assay on SW-620 colon was > 100 µM; in the assay on HOP-92 NSCLC, > 100 µM; with UO-31 renal it was > 100 µM; in the assay with TK-10 renal it was > 31.6 µM.
As to `CCc1nc(C(N)=O)c(Nc2ccc(N3CCC(N4CCN(C)CC4)CC3)c(OC)c2)nc1NC1CCOCC1`, the GI50 (in general, the concentration that inhibits growth by half) in the assay with COLO 205 colon is 1.55 µM and 0.281 µM and 1.57 µM; with SF-295 CNS it was 3.59 µM and 1.02 µM and 4.54 µM; in the assay with CAKI-1 renal, 1.24 µM and 0.236 µM and 1.21 µM; in the assay on SR leukemia it was < 0.0135 µM and 0.0021 µM and 0.013 µM; with NCI-H226 lung, 5.45 µM and > 10 µM and 5.78 µM; in the assay on HCT-116 colon, 1.39 µM and 0.34 µM and 1.23 µM. Besides, the GI50 in the assay on SW-620 colon is 1.33 µM and 0.366 µM and 1.29 µM; in the assay on HOP-92 NSCLC it was 0.173 µM and 0.0827 µM and 0.247 µM; in the assay with UO-31 renal it was 1.01 µM and 0.282 µM and 1.23 µM; with TK-10 renal, 1.75 µM and 0.23 µM and 1.35 µM. Further, the TGI was 9.65 µM and > 1.98 µM and 14.2 µM in the assay on COLO 205 colon; 15.3 µM and > 3.5 µM and 17.3 µM in the assay on SF-295 CNS; 12.9 µM and > 10 µM and 13.4 µM with CAKI-1 renal; 28.8 µM and > 10 µM and 30 µM with NCI-H226 lung; 14.1 µM and > 10 µM and 14.9 µM in the assay with HCT-116 colon; 13.6 µM and > 10 µM and 14.8 µM in the assay with SW-620 colon. In addition, the concentration for total growth inhibition (TGI) with HOP-92 NSCLC is 1.62 µM and 0.64 µM and 1.63 µM; in the assay on UO-31 renal, 8.61 µM and > 10 µM and 8.63 µM.
In the case of `Br[C](Br)(Br)[Hg][c]1ccccc1`, the GI50 with COLO 205 colon was 4.55 µM; with SF-295 CNS, 15.6 µM; with CAKI-1 renal it was 15.2 µM; in the assay on SR leukemia, 3.32 µM; in the assay on NCI-H226 lung, 16.8 µM; in the assay on HCT-116 colon, 19.7 µM. For the same molecule, the GI50 is 1.65 µM in the assay with SW-620 colon, 12.5 µM in the assay on HOP-92 NSCLC, 20.2 µM with UO-31 renal and 17.5 µM in the assay on TK-10 renal. The TGI came out at 16.2 µM in the assay on COLO 205 colon; 30 µM in the assay with SF-295 CNS; 29.8 µM with CAKI-1 renal; 20.4 µM in the assay with SR leukemia; 35.8 µM in the assay on NCI-H226 lung; 47.9 µM in the assay with HCT-116 colon. Further, the total growth inhibition concentration (TGI) in the assay on SW-620 colon was 8.01 µM; with HOP-92 NSCLC it was 25.3 µM; in the assay with UO-31 renal it was 34.5 µM; with TK-10 renal, 31.4 µM.
Turning to `CC/C=C\C[C@H]1C/C=C2/C(=O)C=C[C@@H]2C/C=C\CCCC(=O)O1`, the GI50 in the assay on COLO 205 colon was 0.708 µM; in the assay on SF-295 CNS, 2.17 µM; in the assay with CAKI-1 renal it was 1.05 µM; with SR leukemia it was 0.288 µM; in the assay on NCI-H226 lung, 1.94 µM; in the assay with HCT-116 colon it was 0.218 µM. For the same molecule, the GI50 was 0.454 µM in the assay with SW-620 colon, 2.34 µM in the assay with HOP-92 NSCLC, 1.13 µM in the assay with UO-31 renal and 1.8 µM with TK-10 renal. Besides, the TGI with COLO 205 colon worked out at 2.64 µM; in the assay with SF-295 CNS, 5.44 µM; with CAKI-1 renal, 8.98 µM; in the assay with NCI-H226 lung, 4.75 µM; with HCT-116 colon, 0.511 µM; in the assay with SW-620 colon, 5.52 µM. Also, the TGI came to 5.93 µM in the assay with HOP-92 NSCLC, 2.48 µM in the assay on UO-31 renal and 5.03 µM in the assay with TK-10 renal.
Consider `CC1=C[C@H]2c3c(c(O)c(O)c4oc(-c5ccccc5)cc(=O)c34)[C@H](c3cc(O)c(O)c4oc(-c5ccccc5)cc(=O)c34)[C@H]2C(C)(C)C1`, for which the GI50 in the assay with COLO 205 colon is 1.48 µM; in the assay on SF-295 CNS, 0.312 µM; with CAKI-1 renal, 0.621 µM; with SR leukemia, 0.457 µM; with NCI-H226 lung, 1.36 µM; with HCT-116 colon it was 0.272 µM. Also, the GI50 in the assay with SW-620 colon was 0.934 µM; in the assay on HOP-92 NSCLC, 1.36 µM; in the assay on UO-31 renal, 0.527 µM; in the assay on TK-10 renal, 1.57 µM. In addition, the concentration for total growth inhibition (TGI) with COLO 205 colon is 11.6 µM; with SF-295 CNS, 1.76 µM; in the assay with CAKI-1 renal, 4.57 µM; in the assay with SR leukemia, > 75 µM; in the assay on NCI-H226 lung, 3.59 µM; in the assay with HCT-116 colon it was 1.45 µM. Moreover, the TGI in the assay with SW-620 colon was 13.9 µM; in the assay on HOP-92 NSCLC, 5.84 µM; in the assay on UO-31 renal it was 2 µM; in the assay with TK-10 renal, 31 µM.
As to `CN(C)C(=O)[C@H](O)[C@H](Cc1ccccc1)NC(=O)c1cc2cc(Cl)ccc2[nH]1`, the GI50 is 16.1 µM in the assay on COLO 205 colon; 17.3 µM with SF-295 CNS; 19.3 µM in the assay on CAKI-1 renal; 26.6 µM in the assay with SR leukemia; 23 µM in the assay with NCI-H226 lung; 25 µM in the assay on HCT-116 colon. The GI50 with SW-620 colon was 26.4 µM; in the assay with HOP-92 NSCLC it was 17 µM; with UO-31 renal, 14.8 µM; in the assay with TK-10 renal, 24.3 µM. Moreover, the concentration for total growth inhibition (TGI) is 30.3 µM in the assay with COLO 205 colon; 39 µM in the assay with SF-295 CNS; > 77.5 µM in the assay on CAKI-1 renal; 88.7 µM in the assay on SR leukemia; > 88.2 µM with NCI-H226 lung; > 87 µM in the assay with HCT-116 colon. Also, the TGI with SW-620 colon is > 100 µM; in the assay on HOP-92 NSCLC, 56.8 µM; in the assay with UO-31 renal, 39.8 µM; with TK-10 renal, 67 µM.
Consider `C[C@]12CC[C@@H]3c4cc(OCC(F)(F)F)c(O)cc4/C(=N/O)C[C@H]3[C@@H]1CC[C@@H]2O`, for which the total growth inhibition concentration (TGI) in the assay on COLO 205 colon was 35.3 µM; with SF-295 CNS it was 1.95 µM; in the assay with CAKI-1 renal, > 66.6 µM; with NCI-H226 lung it was > 40.8 µM; with HCT-116 colon it was 15.2 µM; in the assay with SW-620 colon, > 48.1 µM. In addition, the TGI in the assay with HOP-92 NSCLC is 26.3 µM; in the assay on UO-31 renal it was 20.8 µM; in the assay with TK-10 renal, > 100 µM. The GI50 with SF-295 CNS is 0.0611 µM; in the assay with SR leukemia, 0.00319 µM and 0.0157 µM; in the assay with HCT-116 colon, 0.0421 µM; in the assay on SW-620 colon, 0.0403 µM; with UO-31 renal, 0.149 µM.
In the case of `CCn1c(-c2ccc(OC(C)=O)cc2)c(C)c2cc(OC(C)=O)ccc21`, the total growth inhibition concentration (TGI) in the assay with COLO 205 colon is 47.4 µM; in the assay on SF-295 CNS, 96.7 µM; in the assay with CAKI-1 renal it was > 100 µM; in the assay on SR leukemia, 30.8 µM; in the assay with NCI-H226 lung it was > 100 µM; in the assay on HCT-116 colon, 22.1 µM. Besides, the TGI in the assay on SW-620 colon was 82.2 µM; with HOP-92 NSCLC, > 100 µM; in the assay with UO-31 renal, 47.9 µM; in the assay with TK-10 renal, 74.3 µM.
Consider `CC1=CC(C/C(C)=C/COc2ccc3ccc(=O)oc3c2)OC1=O` (stereo unspecified), for which the concentration for total growth inhibition (TGI) with COLO 205 colon, in the assay on SF-295 CNS, in the assay on CAKI-1 renal, in the assay with SR leukemia, with NCI-H226 lung and with HCT-116 colon was > 100 µM each time. Further, the TGI in the assay on SW-620 colon, in the assay on HOP-92 NSCLC, in the assay with UO-31 renal and with TK-10 renal was > 100 µM in each case.
